Source: BindingDB's records for patent US12479887 (Purdue Research Foundation, 2025)

Biological target: T1, N-terminal Xaa-Pro-Lys N-methyltransferase 1 (Homo sapiens, UniProt Q9BV86)
T1 sequence (Q9BV86 whole entry): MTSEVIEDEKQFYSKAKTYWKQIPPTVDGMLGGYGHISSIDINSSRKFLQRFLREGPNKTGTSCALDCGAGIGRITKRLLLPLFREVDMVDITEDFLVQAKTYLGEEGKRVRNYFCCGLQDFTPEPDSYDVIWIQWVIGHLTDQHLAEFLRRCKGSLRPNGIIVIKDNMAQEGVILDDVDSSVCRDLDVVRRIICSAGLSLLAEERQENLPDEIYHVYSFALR
Experiment: Not found

IC50: 95 nM
SMILES: N=C(N)NCCC[C@H](NC(=O)[C@H](CCCCN)N1CCC[C@H]1C(N)=O)C(=O)N[C@@H](Cc1c[nH]c2ccccc12)C(N)=O [US12479887, Compound 43]
